Laboratory results taken from patent US20030145348A1, “Dehydroquinate dehydrase/shikimate dehydrogenase as a herbicide target” (priority 2000, published 2003).

Assays:
shikimate dehydrogenase = details: cited from earlier work
[1] = target: dehydroquinate dehydratase/shikimate dehydrogenase (Nicotiana tabacum, UniProt Q6PUF9); experiment: shikimate dehydrogenase activity assay of Example 5A (NADPH formation, OD 334 nm); format: biochemical; details: 0.1 mM shikimate, 0.1 mM NADP, pH 9.9
Procedure: A. The shikimate dehydrogenase of the bifunctional dehydroquinate dehydratase/shikimate dehydrogenase enzyme catalyzes the following reaction:
shikimate+NADP ? dehydroshikimate+NADPH
The formation of NADPH can be measured over 10 minutes at an OD of 334 nm. The reaction is started by adding 1 microliter of the extracted crude protein. The reaction buffer contains:
100 mM glycine-NaOH, pH: 9.9;
0.1 mM shikimate (Sigma);
The full-length dehydroquinate dehydratase/shikimate dehydrogenase gene was cloned into the pQE vector (FIG. 7) and transformed into E. coli. A single colony of this E. coli strain was incubated overnight at 37° C. in the growth medium “2xYT” (per liter: Bacto tryptone 16 g, yeast extract 10 g, NaCl 5 g, 50 mg/l ampicillin and 50 mg/l kanamycin). Next day, 50 ml of 2*YT were inoculated with 0.5 ml of the overnight culture and grown at 25° C. to an OD600 of 0.6. Gene expression was induced by addition of IPTG (final concentration: 0.05 mM) and incubation was continued for 3 hours at 25° C. The cells were harvested at 4° C. by centrifugation for 10 minutes at 8000 rpm. The pellet was taken up in 3 ml of extraction buffer (50 mM NaH2PO4, 300 mM NaCl, 10 mM imidazole, 15% glycerol, 5 mM mercaptoethanol). The pellet was frozen in liquid nitrogen and again defrosted on ice. The cells were disrupted by sonication (4×45 seconds, 1 minute on ice). The cells were spun down for 20 minutes at 4° C. and 1500 rpm, and the supernatent was used directly for the enzyme measurements.
Six substances whose IC50 value is in the μM range were identified in a comprehensive screening based on the activity assay described in Example 5A (see Table 1).

[2] = test system: duckweed Lemna paucicostatag; experiment: Lemna test, chlorophyll fluorescence; format: in vivo, Lemna minor; set-up: key: A herbicidal effect can be detected by comparison with an untreated control; it is identified in Table 1 by the symbol H; details: chlorophyll fluorescence vs untreated control; 5 mmol/l in DMSO diluted 1:5 in water, 25 μl in 0.5 ml nutrient solution
Procedure: The effect of the herbicidal compounds according to the invention on the growth of the duckweed Lemna paucicostatag is evident from the following test results:
Lemna minor was grown under nonsterile conditions in Petri dishes in 17 mmol/l MES buffer pH 5.5+1.5 mmol/l CaCl—2+1 g/l “Hakaphos spezial”.
To carry out the test, the Lemna cultures are washed and singled out into 0.5 ml of fresh nutrient solution in 48-well microtiter plates. The active ingredients are dissolved in DMSO at a concentration of 5 mmol/l and diluted 1:5 in water. 25 μl of this solution are used in the test.
The parameter measured is the fluorescence of the chlorophyll during the treatment. A herbicidal effect can be detected by comparison with an untreated control; it is identified in Table 1 by the symbol H.

[3] = target: T1, dehydroquinate dehydratase (Escherichia coli, UniProt P05194); details: in Escherichia coli; cited from earlier work
T1 sequence (P05194 1-252): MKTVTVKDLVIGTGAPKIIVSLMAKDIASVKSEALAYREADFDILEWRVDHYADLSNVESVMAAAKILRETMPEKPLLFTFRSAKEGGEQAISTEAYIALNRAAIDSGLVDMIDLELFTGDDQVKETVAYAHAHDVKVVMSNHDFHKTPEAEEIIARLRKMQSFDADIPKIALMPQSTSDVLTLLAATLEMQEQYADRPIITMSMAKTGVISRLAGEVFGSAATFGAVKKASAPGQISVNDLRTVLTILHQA

dehydroquinate dehydratase/shikimate dehydrogenase, sequence (Q6PUF9 entry or part of it): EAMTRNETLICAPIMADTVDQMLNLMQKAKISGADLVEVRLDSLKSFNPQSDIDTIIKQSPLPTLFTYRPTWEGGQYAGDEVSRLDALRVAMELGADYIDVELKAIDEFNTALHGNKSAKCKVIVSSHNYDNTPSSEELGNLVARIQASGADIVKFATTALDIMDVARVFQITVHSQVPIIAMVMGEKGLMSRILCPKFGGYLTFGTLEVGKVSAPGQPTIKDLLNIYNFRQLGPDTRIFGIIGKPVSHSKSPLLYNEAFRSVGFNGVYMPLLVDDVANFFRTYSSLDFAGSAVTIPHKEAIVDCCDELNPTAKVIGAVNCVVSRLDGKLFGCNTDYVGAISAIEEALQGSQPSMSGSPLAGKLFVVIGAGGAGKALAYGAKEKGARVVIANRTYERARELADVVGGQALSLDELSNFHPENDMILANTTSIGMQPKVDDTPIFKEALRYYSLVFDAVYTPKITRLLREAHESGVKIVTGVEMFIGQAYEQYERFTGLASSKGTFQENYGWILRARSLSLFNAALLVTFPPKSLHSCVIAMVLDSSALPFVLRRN

O=S(=O)([O-])[O-].[Cd+2] [CdSO4]
inhibitory effect on shikimate dehydrogenase (shikimate dehydrogenase): inhibitory effect

O=S(=O)([O-])[O-].[Cu+2] [CuSO4]
inhibitory effect on shikimate dehydrogenase (shikimate dehydrogenase): inhibitory effect

[Cu+2] [Cu^2+]
inhibitory effect on shikimate dehydrogenase (shikimate dehydrogenase): inhibitory effect

[Cl][Hg][Cl] [HgCl2]
inhibitory effect on shikimate dehydrogenase (shikimate dehydrogenase): inhibitory effect

[Hg+2] [Hg^2+]
inhibitory effect on shikimate dehydrogenase (shikimate dehydrogenase): inhibitory effect

CCN1C(=O)C=CC1=O [N-ethylmaleimides]
inhibitory effect on shikimate dehydrogenase (shikimate dehydrogenase): inhibitory effect

O=c1[nH]c2ccccc2c(=O)n1CCN1CC2C[C@@H](c3cccc(Cl)c3)C2C1 (stereo partly shown) [No. 1]
IC50 [1]: 20 µM | Effect (herbicidal effect on growth of Lemna) [2]: H

O=C(NNC(=O)c1sc2ccccc2c1Cl)Nc1cccc(Cl)c1 [No. 2]
IC50 [1]: 23 µM | Effect (herbicidal effect on growth of Lemna) [2]: H

CC(=N\O)/C(=N/Nc1ccc(S(C)(=O)=O)cc1)c1ccc(Cl)cc1 [No. 3]
IC50 [1]: 7 µM | Effect (herbicidal effect on growth of Lemna) [2]: H

O=C(Nc1c(Cl)cc(Cl)cc1Cl)c1cccc(O)c1O [No. 5]
IC50 [1]: 3 µM | Effect (herbicidal effect on growth of Lemna) [2]: H

COc1cc(C(=S)N[C@H]2CC[C@@H](C(C)(C)C)CC2)ccc1OC(C)=O [No. 6]
IC50 [1]: 11 µM | Effect (herbicidal effect on growth of Lemna) [2]: H

[Cl-].[Cl-].[Zn+2] [ZnCl2]
inhibitory effect on shikimate dehydrogenase (shikimate dehydrogenase): inhibitory effect

[Zn+2] [Zn^2+]
inhibitory effect on shikimate dehydrogenase (shikimate dehydrogenase): inhibitory effect

D-(+)-tartrates
inhibitory effect on dehydroquinate dehydratase [3]: inhibitory effect

acetates
inhibitory effect on dehydroquinate dehydratase [3]: inhibitory effect

arsenites
inhibitory effect on shikimate dehydrogenase (shikimate dehydrogenase): inhibitory effect

berates
inhibitory effect on shikimate dehydrogenase (shikimate dehydrogenase): inhibitory effect

diethylcarbonates
inhibitory effect on dehydroquinate dehydratase [3]: inhibitory effect

p-chloromercuribenzoates
inhibitory effect on shikimate dehydrogenase (shikimate dehydrogenase): inhibitory effect

succinates
inhibitory effect on dehydroquinate dehydratase [3]: inhibitory effect
